Values of other authors as cited in PubChem BioAssay AID1259409 (Chemical Carcinogenesis Research Information System (CCRIS), 2018).

System: rodent chemically induced tumor inhibition, incidence and multiplicity
Assay: CCRIS tumor inhibitor studies
Details: Route [Inhibitor]: ORAL, Species: RAT; for outcome: Target Tissue: Type of Lesion: THYROID GLAND: ADENOMA

SMILES | tumour outcome (control, treated, inhibition, significance) (Carcinogen: CYCLOPHOSPHAMIDE, 50-18-0, Dose [Inhibitor]: 12 MG/KG BW IN DRINKING WATER 5/WK FOR 20 MO SIMULTANEOUSLY WITH CARCINOGEN TREATMENT (STUDY DURATION: 20 MO), Strain/Sex: SPRAGUE-DAWLEY/MALE, Target Tissue: Type of Lesion: NERVOUS TISSUE: NEOPLASM, Dose [Carcinogen]: 2.5 MG/KG BW IN DRINKING WATER 5/WK FOR 20 MO, Promoter: NONE USED) | tumour outcome (control, treated, inhibition, significance) (Carcinogen: CYCLOPHOSPHAMIDE, 50-18-0, Dose [Inhibitor]: 12 MG/KG BW IN DRINKING WATER 5/WK FOR 20 MO SIMULTANEOUSLY WITH CARCINOGEN TREATMENT (STUDY DURATION: 20 MO), Strain/Sex: SPRAGUE-DAWLEY/MALE, Target Tissue: Type of Lesion: URINARY BLADDER: TUMOR, Dose [Carcinogen]: 2.5 MG/KG BW IN DRINKING WATER 5/WK FOR 20 MO, Promoter: NONE USED) | tumour outcome (control, treated, inhibition, significance) (Carcinogen: CYCLOPHOSPHAMIDE, 50-18-0, Dose [Inhibitor]: 12 MG/KG BW IN DRINKING WATER 5/WK FOR DURATION OF STUDY SIMULTANEOUSLY WITH CARCINOGEN TREATMENT (STUDY DURATION: LIFE), Strain/Sex: SPRAGUE-DAWLEY/MALE, Target Tissue: Type of Lesion: URINARY BLADDER: PAPILLOMA, CARCINOMA, Dose [Carcinogen]: 2.5 MG/KG BW IN DRINKING WATER 5/WK FOR DURATION OF STUDY, Promoter: NONE USED) | tumour outcome (control, treated, inhibition, significance) (Carcinogen: CYCLOPHOSPHAMIDE, 50-18-0, Dose [Inhibitor]: 35 MG/KG BW IN DRINKING WATER 5/WK FOR 20 MO SIMULTANEOUSLY WITH CARCINOGEN TREATMENT (STUDY DURATION: 20 MO), Strain/Sex: SPRAGUE-DAWLEY/MALE, Target Tissue: Type of Lesion: NERVOUS TISSUE: NEOPLASM, Dose [Carcinogen]: 2.5 MG/KG BW IN DRINKING WATER 5/WK FOR 20 MO, Promoter: NONE USED) | tumour outcome (control, treated, inhibition, significance) (Carcinogen: CYCLOPHOSPHAMIDE, 50-18-0, Dose [Inhibitor]: 35 MG/KG BW IN DRINKING WATER 5/WK FOR 20 MO SIMULTANEOUSLY WITH CARCINOGEN TREATMENT (STUDY DURATION: 20 MO), Strain/Sex: SPRAGUE-DAWLEY/MALE, Target Tissue: Type of Lesion: URINARY BLADDER: TUMOR, Dose [Carcinogen]: 2.5 MG/KG BW IN DRINKING WATER 5/WK FOR 20 MO, Promoter: NONE USED) | tumour outcome (control, treated, inhibition, significance) (Carcinogen: CYCLOPHOSPHAMIDE, 50-18-0, Dose [Inhibitor]: 35 MG/KG BW IN DRINKING WATER 5/WK FOR DURATION OF STUDY SIMULTANEOUSLY WITH CARCINOGEN TREATMENT (STUDY DURATION: LIFE), Strain/Sex: SPRAGUE-DAWLEY/MALE, Target Tissue: Type of Lesion: URINARY BLADDER: PAPILLOMA, CARCINOMA, Dose [Carcinogen]: 2.5 MG/KG BW IN DRINKING WATER 5/WK FOR DURATION OF STUDY, Promoter: NONE USED) | outcome (Carcinogen: N-NITROSOBIS(2-HYDROXYPROPYL)AMINE, 53609-64-6, Dose [Inhibitor]: 0, 400 PPM IN DIET FOR 25 WK BEGINNING 9 WK POST CARCINOGEN TREATMENT (STUDY DURATION: 35 WK), Strain/Sex: F344/FEMALE, Dose [Carcinogen]: 2000 MG/KG 1 WK POST BILATERAL OVARIECTOMY, Promoter: SULFADIMETHOXINE, 122-11-2) | tumour outcome (control, treated, inhibition, significance) (Carcinogen: N-NITROSOBIS(2-HYDROXYPROPYL)AMINE, 53609-64-6, Dose [Inhibitor]: 0, 400 PPM IN DIET FOR 25 WK BEGINNING 9 WK POST CARCINOGEN TREATMENT (STUDY DURATION: 35 WK), Strain/Sex: F344/FEMALE, Target Tissue: Type of Lesion: THYROID GLAND: CARCINOMA, Dose [Carcinogen]: 2000 MG/KG 1 WK POST BILATERAL OVARIECTOMY, Promoter: SULFADIMETHOXINE, 122-11-2) | outcome (Carcinogen: N-NITROSOBIS(2-HYDROXYPROPYL)AMINE, 53609-64-6, Dose [Inhibitor]: 0, 400 PPM IN DIET FOR 27 WK BEGINNING 9 WK POST CARCINOGEN TREATMENT (STUDY DURATION: 37 WK), Strain/Sex: F344/FEMALE, Dose [Carcinogen]: 2000 MG/KG BW 1 WK POST BILATERAL OVARIECTOMY, Promoter: SULFADIMETHOXINE, 122-11-2) | tumour outcome (control, treated, inhibition, significance) (Carcinogen: N-NITROSOBIS(2-HYDROXYPROPYL)AMINE, 53609-64-6, Dose [Inhibitor]: 0, 400 PPM IN DIET FOR 27 WK BEGINNING 9 WK POST CARCINOGEN TREATMENT (STUDY DURATION: 37 WK), Strain/Sex: F344/FEMALE, Target Tissue: Type of Lesion: THYROID GLAND: CARCINOMA, Dose [Carcinogen]: 2000 MG/KG BW 1 WK POST BILATERAL OVARIECTOMY, Promoter: SULFADIMETHOXINE, 122-11-2)
O=S(=O)(O)CCSSCCS(=O)(=O)O | 14%, 15%, -7%, not calculated | 30%, 12%, 60%, p>0.0005* | 32/100 (32%), 7/50 (14%), 56%, p<0.00005* | 14%, 15%, -7%, not calculated | 30%, 6%, 80%, p>0.0005* | 32/100 (32%), 3/50 (6%), 81%, p<0.00005* |  |  |  | 
CCNc1nc(Cl)nc(NC(C)C)n1 |  |  |  |  |  |  | 0/12 (0%), 0/15 (0%), 0%, not significant | 10/12 (83%), 9/15 (60%), 28%, not significant | 0/12 (0%), 0/15 (0%), 0%, not significant | 10/12 (83%), 8/15 (53%), 36%, not significant
